Assay results reported in patent US9212168B2 (priority 2011, dated 2015).

Experiments:
HCV genotype 1b replicon = HCV genotype 1b replicon assay (Renilla luciferase readout); type: cell-based, hepatitis C virus; details: for Genotype 1b: HCV genotype 1b replicon; for EC50: Hepatitis C virus, read-out: Genotype 1b
Text: Assay 1: HCV Genotype 1b Replicon Assay
The HCV genotype 1b replicon cell line was obtained from Apath LLC (Brooklyn, N.Y.) (APC144; Huh7 cell background). This subgenomic replicon contains the N-terminus of the HCV core protein fused to the neomycin-resistance selectable marker. The EMCV IRES lies downstream and drives expression of humanized Renilla luciferase fused to the non-structural proteins NS3-NS5B. This cell line was used to determine compound potency using the luciferase activity readout as a measurement of compound inhibition of replicon levels.
Cells were grown at 37° C. in a 5% CO2 humidified incubator in DMEM (Invitrogen) with 10% FBS (HyClone), 1×NEAA (Invitrogen), 1× Pen-Strep (Invitrogen), and 500 μg/mL G418 (Invitrogen). On day 1 of the assay, cells were plated at 10,000 cells/well in white 96-well tissue culture plates (Costar) in 200 μL media lacking G418. Four hours later, once the cells have adhered, the media was removed and replaced with media (no G418) containing dose-responses of test compounds. Compounds were initially diluted in DMSO and then diluted another 200× in media to bring the final DMSO concentration down to 0.5%. The cells were incubated with test compounds for 48 hours. At the end of the incubation period, media and compound were removed from the plates and the luciferase activity was determined using Promega Renilla-Glo reagents.
To analyze the data, the luciferase activity was plotted vs. the compound concentration, and EC50 values were determined from a 4-parameter robust fit model with the GraphPad Prism software package (GraphPad Software, Inc., San Diego, Calif.). Results are expressed as the negative decadic logarithm of the EC50 value, pEC50.
Test compounds having a higher pEC50 value in this assay show greater inhibition of HCV genotype 1b replication.

HCV genotype 1a replicon = HCV genotype 1a replicon assay (NS3 protease activity readout); type: cell-based, hepatitis C virus; details: for Genotype 1a: HCV genotype 1a replicon; for EC50: Hepatitis C virus, read-out: Genotype 1a, HCV genotype 1a replicon
In short: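 Genotype 1a subgenomic replicon cells (APC89, Huh7.5) were treated with compound dose-responses in G418-free medium, 0.5% DMSO final, for 48 or 72 hours at 37° C. Lysate NS3/4a protease activity measured with 15 μM FRET substrate, 20 min at 37° C (ex 340/em 509 nm); EC50 by 4-parameter fit.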

Structure (SMILES)	Genotype 1b (HCV genotype 1b replicon)	Genotype 1a (HCV genotype 1a replicon)	EC50 (HCV genotype 1b replicon)	EC50 (HCV genotype 1a replicon)
COC(=O)N[C@H](C(=O)N1C[C@@H](C)C[C@H]1c1nc(-c2ccc(-c3ccc(C(=O)Nc4ccc(N5CCN(C(=O)C(C)(C)C)C[C@H]5C)nc4)cc3)cc2)c(Cl)[nH]1)C1CCOCC1 [Example 22-10]	D (D represents pEC50>10 (EC50<0.1 nM))	D (D represents pEC50>10 (EC50<0.1 nM))	–	–
COC(=O)NC(C(=O)N1CC(OC)CC1c1nc(-c2ccc(-c3ccc(NC(=O)c4ccc(N5CCN(C(=O)C(C)(C)CO)CC5C)nc4)cc3OC(F)(F)F)cc2)c[nH]1)C(C)O (stereo not shown) [Example 16-15]	D (D represents pEC50>10 (EC50<0.1 nM))	C (C represents pEC50 between and 9 and about 10, (EC50 between 1 nM and 0.1 nM))	–	–
COC(=O)NC(C(=O)N1C(C)CCC1c1nc(-c2ccc(-c3cc(Cl)c(NC(=O)c4ccc(N5CCN(C(=O)C6CC6(C)C)CC5C)nc4)cc3OC(F)(F)F)cc2)c[nH]1)C(C)C (stereo not shown) [Example 17-4]	D (D represents pEC50>10 (EC50<0.1 nM))	D (D represents pEC50>10 (EC50<0.1 nM))	–	–
COC(=O)NC(C(=O)N1CC(C)CC1c1nc(-c2ccc(-c3ccc(NC(=O)c4ccc(N5CCN(C(=O)C(C)(C)CO)CC5C)nc4)cc3OC(F)(F)F)cc2)c[nH]1)C(C)(C)O (stereo not shown) [Example 13-28]	D (D represents pEC50>10 (EC50<0.1 nM))	D (D represents pEC50>10 (EC50<0.1 nM))	–	–
COC(=O)N[C@H](C(=O)N1C[C@@H](C)C[C@H]1c1nc(-c2ccc(-c3cc(F)c(NC(=O)c4ccc(N5C[C@H](C)N(C(=O)C6CC6)C[C@H]5C)nc4)cc3OC(F)(F)F)cc2)c[nH]1)C(C)C [Example 1-15]	D (D represents pEC50>10 (EC50<0.1 nM))	D (D represents pEC50>10 (EC50<0.1 nM))	–	–
COC(=O)N[C@H](C(=O)N1C[C@@H](C)C[C@H]1c1nc(-c2ccc(-c3cc(Cl)c(NC(=O)c4ccc(N5CCN(C(=O)C(C)(C)CO)C[C@H]5C)nc4)cc3OC(F)(F)F)cc2)c[nH]1)[C@H](C)OC [Example 13-18]	–	–	< 0.1 nM	< 0.1 nM
COC(=O)N[C@H](C(=O)N1C[C@@H](C)C[C@H]1c1nc(-c2ccc(-c3cc(Cl)c(NC(=O)c4ccc(N5CCN(C(=O)c6c[nH]cn6)C[C@H]5C)nc4)cc3OC(F)(F)F)cc2)c[nH]1)C(C)C [Example 1-18]	D (D represents pEC50>10 (EC50<0.1 nM))	D (D represents pEC50>10 (EC50<0.1 nM))	–	–
COC(=O)NC(C(=O)N1CC(C)CC1c1nc(-c2ccc(-c3ccc(NC(=O)c4ccc(N5CCN(C(=O)C(C)(C)C)CC5C)nc4)cc3OC(F)(F)F)cc2)c[nH]1)C1CCOCC1 (stereo not shown) [Example 13-12]	D (D represents pEC50>10 (EC50<0.1 nM))	D (D represents pEC50>10 (EC50<0.1 nM))	–	–
COC(=O)N[C@H](C(=O)N1C[C@@H](C)C[C@H]1c1nc(-c2ccc(-c3cc(Cl)c(C(=O)Nc4ccc(N5CCN(C(=O)C(C)(C)C)C[C@H]5C)nc4)cc3OC(F)(F)F)cc2)c[nH]1)C(C)C [Example 4-46]	D (D represents pEC50>10 (EC50<0.1 nM))	D (D represents pEC50>10 (EC50<0.1 nM))	–	–
COC(=O)N[C@H](C(=O)N1C[C@@H](C)C[C@H]1c1nc(-c2ccc(-c3cc(Cl)c(NC(=O)c4ccc(N5CCN(C(=O)C(C)(C)CO)C[C@H]5C)nc4)cc3OC(F)(F)F)cc2)c[nH]1)C1CCOCC1 [Example 13-19]	–	–	< 0.1 nM	< 0.1 nM
COC(=O)N[C@H](C(=O)N1C[C@@H](OC)C[C@H]1c1nc(-c2ccc(-c3cc(Cl)c(NC(=O)c4ccc(N5CCN(C(=O)C(C)(C)C)C[C@H]5C)nc4)cc3OC(F)(F)F)cc2)c[nH]1)[C@H](C)O [Example 16-2]	D (D represents pEC50>10 (EC50<0.1 nM))	D (D represents pEC50>10 (EC50<0.1 nM))	–	–
